Reference: patent publication US20260217701A1, “SELECTIVE BET INHIBITORS AND USES THEREOF” (Tay Therapeutics Limited, priority 2022, published 2026)
Several values for one entry are separate records, joined by “and”; a condition that tells them apart may be missing. Equal values may be shown once.

Tested on: imiquimod-induced psoriasis
Experiment: Imiquimod-induced psoriasis model
Format: in vivo, mice
Conditions: for PASI Scores / Number Licking / Number Licking + Scratching / Number Scratching / Distance Traveled / Number Rearings: individual animals; for Distance Traveled / Number Rearings: behavioral evaluation
Summary of the method: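 Mice given topical imiquimod (5% cream) daily on depilated backs Days 1–14; Compound A in 5% DMSO/40% PEG-400/55% saline from Day 8, clobetasol topical as reference. Daily PASI (erythema, induration, peeling, each 0–4, summed) Days 8–15; spleen weight, open-field behaviour, serum IL-1B, IL-6, IL-17, TNF-α, IL-22, IL-23 at Day 15.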

[1] = IMI-psoriasis model, behavioral evaluation D15, 1 mg/kg
[2] = IMI-psoriasis model, behavioral evaluation D15, 3 mg/kg
[3] = IMI-psoriasis model, behavioral evaluation D15, 10 mg/kg

Cn1cc(-c2ccccc2)c(-c2cn(C)c(=O)c3[nH]c(-c4cnn(C(F)(F)F)c4)cc23)cc1=O [Compound A, 6-methyl-4-(1-methyl-2-oxo-5-phenyl-1,2-dihydropyridin-4-yl)-2-(1-(trifluoromethyl)-1H-pyrazol-4-yl)-1,6-dihydro-7H-pyrrolo[2,3-c]pyridin-7-one]
PASI Scores (IMI + Compound A 1 mg/kg, D12, 1 mg/kg): 6 and 4 (4×) and 5 (2×) and 3
PASI Scores (IMI + Compound A 1 mg/kg, D13, 1 mg/kg): 3 (4×) and 2 (2×) and 4 and 5
PASI Scores (IMI + Compound A 1 mg/kg, D14, 1 mg/kg): 1 (2×) and 2 (3×) and 3 (3×)
PASI Scores (IMI + Compound A 1 mg/kg, D15, 1 mg/kg): 1 (5×) and 2 (2×) and 0
PASI Scores (IMI + Compound A 3 mg/kg, D8 (day treatment started), 3 mg/kg): 8 and 6 and 7 and 5 and 9
PASI Scores (IMI + Compound A 3 mg/kg, D9, 3 mg/kg): 8 (3×) and 5 and 6
PASI Scores (IMI + Compound A 3 mg/kg, D10, 3 mg/kg): 6 and 7 and 4 and 5 (2×)
PASI Scores (IMI + Compound A 3 mg/kg, D11, 3 mg/kg): 4 (2×) and 3 (2×) and 5
PASI Scores (IMI + Compound A 3 mg/kg, D12, 3 mg/kg): 3 and 4 and 2 and 5
PASI Scores (IMI + Compound A 3 mg/kg, D13, 3 mg/kg): 2 (3×) and 0
PASI Scores (IMI + Compound A 3 mg/kg, D14, 3 mg/kg): 2 and 0 (2×) and 1
PASI Scores (IMI + Compound A 3 mg/kg, D15, 3 mg/kg): 1 (2×) and 0 (2×)
Use Enrichment D1 (IMI-psoriasis model, D1, 1 mg/kg, per cage (two animals)): 4.0
Use Enrichment D1 (IMI-psoriasis model, D1, 3 mg/kg, per cage (two animals)): 4.0 and 3.5
Use Enrichment D1 (IMI-psoriasis model, D1, 10 mg/kg, per cage (two animals)): 4.0
Use Enrichment D8 (IMI-psoriasis model, D8, 1 mg/kg, per cage (two animals)): 1.0 and 1.5
Use Enrichment D10 (IMI-psoriasis model, D10, 1 mg/kg, per cage (two animals)): 2.5 and 3.5 and 2.0
Use Enrichment D10 (IMI-psoriasis model, D10, 3 mg/kg, per cage (two animals)): 2.0 and 3.0
Use Enrichment D10 (IMI-psoriasis model, D10, 10 mg/kg, per cage (two animals)): 3.0 and 4.0
Use Enrichment D11 (IMI-psoriasis model, D11, 1 mg/kg, per cage (two animals)): 3.0 and 4.0 and 2.0
Use Enrichment D11 (IMI-psoriasis model, D11, 3 mg/kg, per cage (two animals)): 3.0 and 4.0
Use Enrichment D11 (IMI-psoriasis model, D11, 10 mg/kg, per cage (two animals)): 3.0 and 4.0
Use Enrichment D12 (IMI-psoriasis model, D12, 1 mg/kg, per cage (two animals)): 2.0 and 2.5 and 4.0
Use Enrichment D12 (IMI-psoriasis model, D12, 3 mg/kg, per cage (two animals)): 3.0
Use Enrichment D12 (IMI-psoriasis model, D12, 10 mg/kg, per cage (two animals)): 2.0 and 4.0 and 3.0
Use Enrichment D13 (IMI-psoriasis model, D13, 1 mg/kg, per cage (two animals)): 4.0
Use Enrichment D13 (IMI-psoriasis model, D13, 3 mg/kg, per cage (two animals)): 4.0
Use Enrichment D13 (IMI-psoriasis model, D13, 10 mg/kg, per cage (two animals)): 4.0
Use Enrichment D14 (IMI-psoriasis model, D14, 1 mg/kg, per cage (two animals)): 4.0
Use Enrichment D14 (IMI-psoriasis model, D14, 3 mg/kg, per cage (two animals)): 4.0
Use Enrichment D14 (IMI-psoriasis model, D14, 10 mg/kg, per cage (two animals)): 4.0
Use Enrichment D15 (IMI-psoriasis model, D15, 1 mg/kg, per cage (two animals)): 4.0
Use Enrichment D15 (IMI-psoriasis model, D15, 3 mg/kg, per cage (two animals)): 4.0
Use Enrichment D15 (IMI-psoriasis model, D15, 10 mg/kg, per cage (two animals)): 4.0
Number Licking [1]: 3 (2×) and 5 and 1 and 4 and 2 (2×) and 0
Number Licking + Scratching [1]: 3 (2×) and 5 (2×) and 8 and 2 (2×) and 0
Number Scratching [1]: 0 (6×) and 7 and 1
Number Licking [2]: 3 and 5 and 1 (3×) and 4 (2×)
Number Licking + Scratching [2]: 3 and 5 and 1 (3×) and 4 (2×)
Number Scratching [2]: 0
Number Licking [3]: 2 (4×) and 7 and 1 and 4 and 5
Number Licking + Scratching [3]: 3 and 11 and 2 (3×) and 4 (2×) and 5
Number Scratching [3]: 1 (2×) and 4 and 0 (4×) and 2
Distance Traveled (IMI-psoriasis model, 1 mg/kg): 18 m and 11 m and 14 m (2×) and 12 m and 16 m (2×) and 4 m
Number Rearings (IMI-psoriasis model, 1 mg/kg): 42 and 52 and 50 and 55 and 35 and 78 and 46 and 4
Distance Traveled (IMI-psoriasis model, 3 mg/kg): 12 m (3×) and 13 m (2×) and 8 m and 9 m
Number Rearings (IMI-psoriasis model, 3 mg/kg): 41 and 43 and 34 (2×) and 24 and 8 and 47
Distance Traveled (IMI-psoriasis model, 10 mg/kg): 4 m and 13 m (2×) and 10 m and 8 m and 7 m and 6 m and 11 m
Number Rearings (IMI-psoriasis model, 10 mg/kg): 6 and 39 and 38 and 46 and 11 and 21 and 13 and 55
Use Enrichment Mean D1-D8 (IMI-psoriasis model, mean D1-D8, 1 mg/kg, per cage (two animals)): 2.50 and 2.75
Use Enrichment Mean D1-D8 (IMI-psoriasis model, mean D1-D8, 3 mg/kg, per cage (two animals)): 2.50 and 2.00 and 2.25
Use Enrichment Mean D1-D8 (IMI-psoriasis model, mean D1-D8, 10 mg/kg, per cage (two animals)): 2.50 and 2.75 and 2.00
Use Enrichment Mean D8-D15 (IMI-psoriasis model, mean D8-D15, 1 mg/kg, per cage (two animals)): 3.00 and 3.36 and 3.14
Use Enrichment Mean D8-D15 (IMI-psoriasis model, mean D8-D15, 3 mg/kg, per cage (two animals)): 3.00 and 3.14 and 2.86
